Data: US20220409620A1, “REDUCING IMMUNOGENICITY TO PEGLOTICASE” (Horizon Pharma Rheumatology LLC, priority 2016, published 2022)

Tested on: adult patients with uncontrolled gout
Test: Serum uric acid (sUA) levels and sUA responder rate, open-label study of pegloticase with MTX (MIRROR OL)
Assay type: in vivo, human
Conditions: for Serum Uric Acid Change from Methotrexate Baseline, Mean (SD) / Serum Uric Acid Change from Methotrexate Baseline, Median / Serum Uric Acid, Observed, Mean (SD) / Serum Uric Acid, Observed, Median / sUA <6 mg/dL, n (%): mITT
Experimental: The primary objective is to estimate the response rate during Month 6 (Weeks 20, 22, and 24), as measured by the sustained normalization of serum uric acid (SUA) to <6 mg/dL for at least 80% of the time during Month 6 in subjects receiving KXX with MTX.
The primary efficacy outcome endpoint is the sustained normalization of SUA to <6 mg/dL for at least 80% of the time during month 6 (weeks 20, 22, and 24) in subjects receiving KXX with MTX. […] Participants who achieve this endpoint were classified as “responders.” Serum uric acid (SUA) responders may also be defined as participants achieving and maintaining SUA <6 mg/dL for at least 80% of the time during Month 6 (Weeks 20, 22, and 24).
Blood samples may be collected prior to each pegloticase infusion for measurement of SUA levels using the Beckman Coulter AU System Uric Acid procedure. Participants were declared “non-responders” if there were SUA measures >6 mg/dL at 2 consecutive study visits beginning with the week 2 visit. […] This assumption and subsequent discontinuation of pegloticase was consistent with the protocol of large phase III randomized controlled trials and the product label. A formal stopping rule was 2 occasions of SUA levels of greater than 6 mg/dL.
Clinical Chemistry—Blood samples were collected prior to each pegloticase infusion for measurement of SUA levels (primary efficacy parameter) using the Beckman Coulter AU System Uric Acid procedure. In this procedure uric acid is converted to hydrogen peroxide. Hydrogen peroxide reacts with reagent to produce a chromophore which is read bichromatically at 660/800 nm. The amount of dye formed is proportional to the uric acid concentration in the sample.
Serum samples for measurement of SUA levels were collected at the Screening Visit, the Week −4 Visit (prior to the first dose of MTX), and the Week −2 Visit during the MTX Run-in Period; within 48 hours prior to each pegloticase infusion and after the end of each pegloticase infusion prior to discharge from the site during the Pegloticase+IMM Period; at the non-infusion Week 52/End of Study/Early Termination Visits and at the Post Treatment 3 and 6 Month Follow-up Visits. Additional serum samples for SUA levels were collected at optional non-infusion (Frequent Sampling) Visits at Weeks 1 and 7. […] Subjects with SUA level >6 mg/dL at 2 consecutive visits beginning at Week 2 visit discontinued treatment, completed the End of Pegloticase Infusion Visit procedures within 2 weeks and continued the subject visits according to the protocol (without treatment).
Efficacy analyses were performed using the modified intention-to-treat (mITT) population, defined as all enrolled subjects who received ≥1 dose of pegloticase. The proportion of Month 6 responders was summarized, along with a 95% confidence interval for the proportion. The proportion of Month 3 and overall (Months 3 and 6 combined) responders was analyzed similarly.
A subject was declared a non-responder if the subject had SUA level >6 mg/dL at 2 consecutive study visits beginning with the Week 2 Visit. In addition, a subject who withdraws from study treatment for any reason after the first dose of pegloticase in the KXX+MTX Period and prior to Month 6 (for the primary endpoint) or Month 3 (for the secondary endpoint) was considered a non-responder if SUA values were not collected at the planned time points.
Patients were administered oral MTX (15 mg/week) and folate (1 mg/day) 4 weeks prior to the first pegloticase infusion (Day 1) and throughout the pegloticase treatment period. Blood was drawn prior to each infusion to measure sUA level, monitor clinical parameters, and examine for ADA development. All patients followed typical IR prophylaxis protocols (fexofenadine one day before and the morning of each infusion and acetaminophen and IV corticosteroid the morning of each infusion).

[1] = Day 1 - Pre-Infusion (after MTX Run-in)

## CN(Cc1cnc2nc(N)nc(N)c2n1)c1ccc(C(=O)N[C@@H](CCC(=O)O)C(=O)O)cc1 [MTX, methotrexate]
Day 1, after 4-week MTX run-in, before first pegloticase infusion, 14 patients
  mean sUA: 9.2 ± 2.5 mg/dL
[1]
  Serum Uric Acid Change from Methotrexate Baseline, Mean (SD): 0.25 (1.283) mg/dL
  Serum Uric Acid Change from Methotrexate Baseline, Median: -0.25 mg/dL
  Serum Uric Acid, Observed, Mean (SD): 9.16 (2.486) mg/dL
  Serum Uric Acid, Observed, Median: 9.00 mg/dL
  sUA <6 mg/dL, n (%): 1 (7.1%)
Week - 2 (MTX Run-in)
  Serum Uric Acid Change from Methotrexate Baseline, Mean (SD): 0.54 (0.839) mg/dL
  Serum Uric Acid Change from Methotrexate Baseline, Median: 0.50 mg/dL
  Serum Uric Acid, Observed, Mean (SD): 9.45 (2.211) mg/dL
  Serum Uric Acid, Observed, Median: 9.30 mg/dL
  sUA <6 mg/dL, n (%): 1 (7.1%)
